≈ marks a conversion by molar mass, not a printed value. Like-named read-outs stand apart in the source and are kept apart here.
Assay: Solubility of co-crystal and reactants in organic solvents at 25° C.
Format: physicochemical
Settings: mean +/− deviation; for solubility: organic solvent or mixture, thermodynamic from solid
Method: The predicted reduction in solubility of the co-crystal is borne out experimentally as illustrated, for example in FIG. 4, which uses the carbamazepine nicotinamide 1:1 co-crystal (CBZ:NCT) for illustration. The CBZ:NCT co-crystal is known; solubilities for the co-crystal and the reactants CBZ and NCT in three solvents (ethanol, […]) are given in the table.
Solubilities are given at 25° C. and are expressed as the mean +/− the deviation for a sample size of 3. It is noted that only in ethyl acetate is the co-crystal the least soluble component. Accordingly, the co-crystal can be precipitated from equimolar solutions of CBZ and NCT in ethyl acetate to produce the co-crystal by cooling or evaporation methods.

[1] = 2-propanol, sample size 3, read-out: Solubility in 2-Propanol
[2] = ethanol, sample size 3, read-out: Solubility in Ethanol
[3] = ethyl acetate, sample size 3, read-out: Solubility in Ethyl acetate

Structure (SMILES)	solubility [1]	solubility [2]	solubility [3]	Solubility in 2-Propanol (2-propanol, sample size 3)	Solubility in Ethanol (ethanol, sample size 3)	Solubility in Ethyl acetate (ethyl acetate, sample size 3)
NC(=O)N1c2ccccc2C=Cc2ccccc21 [CBZ(III), carbamazepine]	39 ± 3 mM (≈ 9.21 mg/mL)	108 ± 0.1 mM (≈ 25.5 mg/mL)	44 ± 0.1 mM (≈ 10.4 mg/mL)	–	–	–
NC(=O)N1c2ccccc2C=Cc2ccccc21.NC(=O)c1cccnc1 [CBZ:NCT, Carbamazepine:Nicotinamide co-crystal]	–	–	–	44 ± 3 mM	116 ± 3 mM	24 ± 1 mM
NC(=O)c1cccnc1 [NCT(I), Nicotinamide]	496 ± 4 mM (≈ 60.6 mg/mL)	841 ± 8 mM (≈ 103 mg/mL)	98 ± 2 mM (≈ 12 mg/mL)	–	–	–

Reference: patent US20070099237A1, “Reaction co-crystallization of molecular complexes or co-crystals” (The Regents of The University of Michigan, priority 2005, published 2007)
